Measured values taken from patent US20250359547A1, “ALKOXYLATED ALKANOLS FOR ENHANCING THE ACTIVITY OF ANTIMICROBIAL AGENTS” (BASF SE, priority 2022, published 2025).

Test system: Escherichia coli (E. coli DSM 682)
Assay: Bactericidal activity of cleaner/disinfecting formulations according to DIN EN 1276-2010 under dirty conditions
Assay type: cell-based
Details: no ethoxylated alkanol, 0.3% bovine albumin, 35° C., 5 min contact time
Procedure: For biological activity testing, the following microorganisms were used: Escherichia coli(E. coli DSM 682)
Lutensol® XP 40 and benzalkonium chloride (BAC) were formulated into a dilutable concentrated hard-surface cleaner. For comparison, corresponding formulations containing Lutensol® XP 70 or Lutensol® A 7 N instead of Lutensol® XP 40 were also prepared. The finished formulations were pre-dissolved 1:80 in standardized hard water (DIN EN 1276-2010) and then diluted to 80% by adding 1 ml of the inoculate and 1 ml of bovine albumin solution to 8 ml of the pre-dissolved cleaner, so that in-test a dilution of 1:100 was obtained.
(§1) Antimicrobial testing of the above formulations in 1:100 dilution was done according to European Standard (DIN EN 1276-2010) under dirty conditions, i.e. additional soiling of 0.3% bovine albumin at 35° C. and 5 mi contact time. Neutralization was done using the Saponin-containing neutralizer as described in DIN EN 1276 (30 g/l Polysorbate 80+30 g/l Saponin+3 g/l Lecithin). Results are documented in the table below as logarithmic reduction (Ig R) in comparison to the number of microorganisms used for the test.
Benzalkonium chloride (BAC) and one of Lutensol® XP 30, Lutensol® XP 40 and Lutensol® XP 50 were formulated into a dilutable concentrated hard-surface cleaner. The finished formulations were pre-dissolved 1:80 in standardized hard water (DIN EN 1276-2010) and then diluted to 80% by adding 1 ml of the inoculate and 1 ml of bovine albumin solution to 8 ml of the pre-dissolved cleaner, so that in-test a dilution of 1:100 was obtained.
as §1, with “5 min” for “5 mi”, “test. […]” for “test.”

CCCCCCCCCCCC[N+](C)(C)Cc1ccccc1.[Cl-] [BAC, lauryl dimethyl benzyl ammonium chloride]
E. coli logarithmic reduction (lg R) (Example 1, BAC 40 ppm in-test, 1:100 dilution, pH ca. 8): <0.87 lg R
E. coli logarithmic reduction (lg R) (Example 2, BAC 40 ppm in-test): 0.4 lg R

CCCCCCCCCC[N+](C)(C)CCCCCCCCCC.[Cl-] [DDAC, didecyldimethylammonium chloride]
E. coli logarithmic reduction (lg R) (Example 3, DDAC 20 ppm in-test): 0.7 lg R
